Literature values as cited in patent US8222270B2 (Medicis Pharmaceutical Corporation, priority 2008, dated 2012).

System: actinic keratoses
Settings: cited from earlier work

In the case of `O=c1[nH]cc(F)c(=O)[nH]1` [Formulation 5-FU, 5-fluorouracil], the “Sustained clearance of the total treatment field, patients” value (12-month follow-up) is listed as 33%, the “Sustained clearance rate of initially cleared individual lesions” value (12-month follow-up) is listed as 54% and the Histological clearance rate (in vivo) is listed as 67%. The “Initial clinical clearance, patients” value (in vivo) was 96%.
